{
  "source": "patent US9254274B2",
  "about": "“Method of treating Tourette'S disorder with GABA-aminotransferase inactivators” (CATALYST PHARMACEUTICAL PARTNERS, priority 2012, dated 2016)",
  "key": {"[1]": {"molecular_target": "γ-aminobutyric acid aminotransferase (GABA-AT) (Sus scrofa, UniProt P80147)", "sequence (P80147 29-500)": "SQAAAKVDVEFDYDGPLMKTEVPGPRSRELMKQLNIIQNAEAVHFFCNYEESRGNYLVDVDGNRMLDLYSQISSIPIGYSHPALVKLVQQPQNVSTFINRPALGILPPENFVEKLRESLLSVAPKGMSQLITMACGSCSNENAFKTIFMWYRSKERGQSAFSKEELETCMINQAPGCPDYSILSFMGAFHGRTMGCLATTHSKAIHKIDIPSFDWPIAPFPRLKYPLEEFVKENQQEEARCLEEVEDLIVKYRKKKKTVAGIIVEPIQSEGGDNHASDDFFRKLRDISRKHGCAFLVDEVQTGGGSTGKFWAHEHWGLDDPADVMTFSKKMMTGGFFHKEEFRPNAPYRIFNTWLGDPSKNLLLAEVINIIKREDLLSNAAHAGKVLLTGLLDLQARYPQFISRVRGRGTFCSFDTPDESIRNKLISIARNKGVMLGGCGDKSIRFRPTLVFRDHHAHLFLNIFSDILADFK", "settings": "cited from earlier work"}, "[2]": {"test_system": "patient diagnosed with Tourettes's Disorder (TD)", "test": "Clinical observations: single patient with Tourette's Disorder treated with vigabatrin", "format": "in vivo, human", "text": "The following instruments will be used to assess diagnosis and symptom severity at baseline: • a) SCID-CT. A clinician administered, semi-structured diagnostic interview specifically developed for use in clinical trials with adults • b) Yale Global Tic Severity Scale (Y-GTSS) (Leckman et al, 1989). The primary outcome measure for tic assessment is this investigator administered Global Severity score (sum of Total Tic score and TD Impairment score) on the Y-GTSS. It includes measures of tic frequency and severity and is widely used in drug efficacy trials involving TD. • c) Yale-Brown Obsessive Compulsive Scale (Y-BOCS) (Goodman et al, 1989). The Y-BOCS is a primary outcome measure of OCD symptoms and is rated by a study investigator. • d) Clinical Global Impression for Tics (Tics-CGI) (Leckman et al, 1988), for ADHD (ADHD-CGI), and for OCD (OCD-CGI) (Guy et al, 1976). Rated by the investigator. Global Improvement (1=very much improved, to 7=very much worse) scales. At intake, only the severity can be rated. In subsequent assessments, both severity and improvement will be rated. A CGI improvement of 1 (very much) or 2 (much) improved is considered to be an acceptable response to acute treatment as is a clinical severity rating of ≦3. • e) DSM-IV-TR Global Assessment of Functioning Scale (GAF) (APA DSM-IV-TR, 2000). The investigator-rated GAF ranges from 1-100, with scores over 70 indicating normal adjustment, and below 60, clinically significant impairment. • f) Hamilton Depression Scale. A clinician-rated scale used as a screening and diagnostic tool and a measure of severity of […] in adults, which has been widely used in clinical trials of young adults with MDD. • g) Hamilton Anxiety Scale. A clinician-rated scale used as a screening and diagnostic tool and a measure of severity of […] in adults, which has been widely used in clinical trials of young adults with MDD. • h) Conners Adult ADHD Rating Scale (CAARS:SL) Systematic self-report of ADHD symptoms in adults. • i) Adverse Events Form (SMURF) is completed at every visit to document all adverse events that occur during the study. • j) Demographics: Demographics and family history information are collected systematically during the Screening/Baseline Phase. • k) Vital signs, Weight and Height (pulse, blood pressure, weight, and height) will be assessed at every visit. • l) Abnormal Involuntary Movement Scale (AIMS) An investigator rated scale of abnormal involuntary movements including tardive dyskinesia. • m) Opthalmological evaluation including visual fields testing Visit 2 (Treatment Week 0):\nA single patient diagnosed with Tourettes's Disorder (TD) was treated with vigabatrin for a period of about ten months. Subject is a person with a longstanding history of severe TD. Their course was characterized by typical attenuation of symptoms in late adolescence/early adulthood with an unusual, but not rare, acceleration of symptoms to lifetime peak severity in the last several years. This exacerbation occurred in temporal association with several significant life stressors. Marking the severity of their TD course was a history of fractured rib secondary to a truncal tic, inability to take public transportation, and inability to find steady work in their profession. […] They were on tetrabenazine at the time of referral to the study, but their response to this medication was limited by depressed mood symptoms and moderate fatigue.\nBaseline Yale Global Tic Severity Score (YGTSS) score indicated a total motor score of 22, and a total vocal score of 17, for a total tic score (TTS) of 39 and a tic-related impairment score of 40; global severity was 79. Global Assessment of Functioning (GAF) score at baseline was 50."}, "[3]": {"molecular_target": "neuronal GABA transporter (Mus musculus, UniProt P31648)", "settings": "Ludwig et al 1999; cited from earlier work"}, "brain GABA levels": {"test_system": "brain GABA levels", "settings": "human, single dose; cited from earlier work"}},
  "note": "“Also recorded” adds a separate entry of the source. Like-named read-outs stand apart in the source and are kept apart here.",
  "data": [
    {"smiles": "C=C1C[C@H](C(=O)O)C[C@@H]1N", "note": "[Compound 2, (1S,3S)-3-amino-4-methylenyl-1-cyclopentanoic acid]", "values": [
      {"measurement": "GABA-AT inactivation", "setting": "[1]; 2-mercaptoethanol added to the incubation mixture", "result": "no inactivation occurred"},
      {"measurement": "GABA-AT inactivation", "setting": "[1]; without 2-mercaptoethanol", "result": "inactivation of GABA-AT was observed"}
    ]},
    {"smiles": "N[C@@H]1C=C[C@H](C(=O)O)C1", "note": "[compound 1, (1R,4S)-4-amino-cyclopent-2-ene-1-carboxylic acid]", "values": [
      {"measurement": "specificity constant as GABA-AT substrate relative to GABA", "setting": "[1]", "result": "almost five times greater than that of GABA"}
    ]},
    {"smiles": "C=CC(N)CCC(=O)O", "note": "(stereo not drawn) [vigabatrin, γ-vinyl GABA]", "values": [
      {"measurement": "tic severity, overall clinical outcome", "setting": "[2]", "result": "clinically significant and meaningful improvement in their tic severity"},
      {"measurement": "YGTSS total tic score (TTS)", "setting": "[2]; GVG 2 grams, week 2, baseline TTS 39", "result": 31},
      {"measurement": "YGTSS total tic score (TTS)", "setting": "[2]; GVG 3 grams, week 3, baseline TTS 39", "result": 27},
      {"measurement": "YGTSS total tic score (TTS)", "setting": "[2]; GVG 3 grams, week 4, baseline TTS 39", "result": 24},
      {"measurement": "YGTSS total tic score (TTS)", "setting": "[2]; GVG 3 grams, week 5, baseline TTS 39", "result": 21},
      {"measurement": "YGTSS total tic score (TTS)", "setting": "[2]; GVG 3 grams, week 7, baseline TTS 39", "result": 24},
      {"measurement": "adverse effect", "setting": "[2]; GVG up to 3 grams, listed as GVG", "result": "minimal: tiredness and fatigue starting at 2 grams, which gradually attenuated; also recorded: mild and non-limiting adverse effect of fatigue"},
      {"measurement": "eye exam", "setting": "[2]; at 7 weeks, overall, listed as GVG", "result": "normal, and showed no change from baseline; also recorded: unchanged and within normal limits"},
      {"measurement": "YGTSS total tic score (TTS)", "setting": "[2]; week 1, dose figure not printed ('gram'), baseline TTS 39", "result": 29},
      {"measurement": "Global Assessment of Functioning (GAF) score", "setting": "[2]; week 7, baseline GAF 50", "result": 65},
      {"measurement": "inhibition of GABA uptake", "setting": "[3]", "result": "inhibits GABA uptake"},
      {"measurement": "brain GABA levels after administration", "setting": "brain GABA levels", "result": "remain substantially elevated for several days"}
    ]}
  ]
}
